The values below come from patent US20180008523A1, “ONYCHOMYCOSIS TREATMENT SYSTEM AND METHOD” (DEVICEFARM, INC., priority 2014, published 2018).

Several values for one entry are separate records, joined by “and”; a condition that tells them apart may be missing. Equal values may be shown once.

This experiment concerns T. rubrum. Put plainly: Eradication of T. rubrum through a bovine hoof disk (modified Franz-type diffusion cell), colony count after treatment. The class given is cell-based, Trichophyton rubrum. Conditions: 3 ul PFD on hoof immediately before 45 minutes of plasma treatment; seven days of incubation; 94% for one hoof, 100% (no colonies) for the other two. An excerpt:
Eradication of T. rubrum through a bovine hoof using Perfluorode alin (PFD) facilitator and an SMD plasma-generating device.
The in vitro test model uses a bovine, hoof disk, a surrogate nail model established in the literature. It is used along with a modified Franz-type diffusion cell to isolate the fungal contaminated side of the hoof in an enclosed chamber that ensures the treatment path is through the hoof barrier. An equal amount of T. rubrum is pipetted onto each hoof disc consisting of a 100 ul suspension. Each hoof disk is then placed fungus side down into the modified Franz cell and sealed with an O-ring. Each hoof is then plasma treated for 45 minutes where the average thickness of hoof disks is 0.35 mm. Eight hoof disks were treated as: • a. Control that is placed directly into the wash tube without any treatment • b. Two PFD-only hooves had 3 ul PFD pipetted directly onto the hoof opposite side from the fungus. This was allowed to sit for 45 minutes in the hood before placing in the wash tube. • c. Two Plasma treatment only hooves get just a 45 minute plasma is treatment (i.e., no PFD). • d. Three Plasma treatment with PFD hooves had 3 ul PFD pipetted directly onto the hoof opposite side from the fungus immediately before applying plasma treatment.
After treatment, each hoof went through a fungal collection protocol consisting of washing, dilution, plating and incubation. […]

As to `FC1(F)C(F)(F)C(F)(F)C2(F)C(F)(F)C(F)(F)C(F)(F)C(F)(F)C2(F)C1(F)F` (stereo not shown) [PFD, perfluorodecalin], the “colony reduction compared to control” value was 94% and 100%.
